“And” between values parts separate entries of the source, which are not always exact repeats. Equal entries are not always repeated.
Legend:
sea lice [1] = experiment: KCl bath treatment of sea-lice-infected Atlantic salmon: sea lice detachment; format: in vivo
Method: (§1) A 0.48% (4.8 g/L-4.8 ppt) pharmaceutical grade KCl compound was tested on 30 Atlantic salmon that were infected with sea lice. The fish and the compound were added to a tank filled with seawater. After 30 minutes 15 fish were removed and placed in a recovery bath of seawater, and at 60 minutes the remaining 15 fish were removed.
(§2) A 0.43% % (4.3 g/L-4.3 ppt) agricultural grade KCl compound was tested on Atlantic salmon that were infected with sea lice. After 10 minutes the fish began showing agitation that increased until the 30 minute mark. Fish began losing equilibrium and began to roll over and stop respiring by 20 minutes.
(§3) A water holding tank was filled with fresh well water at 10° C.+−2° C. A 0.5% % (5.0 g/L-5.0 ppt) agricultural grade KCl solution was added to the water. A number of farm-raised Atlantic salmon that were infected with sea lice were added to the tank.
(§4) A water holding tank was filled with fresh well water at 10° C.+−2° C. A 0.2% % (2.0 g/L-2.0 ppt) agricultural grade KCl solution was added to the water. A number of farm-raised Atlantic salmon that were infected with sea lice were added to the tank.

Atlantic salmon = experiment: KCl bath treatment of Atlantic salmon: adverse effects on the fish; format: in vivo
Method: as §1, §2, §3, §4

sea lice [2] = experiment: Pilot laboratory trial: KCl pre-treatment plus mechanical devices for removal of sea lice from Atlantic salmon; format: in vivo
Method: A pilot laboratory trial was run using various forms of mechanical devices for removal of sea lice from Atlantic salmon (ATS). The effectiveness of the mechanical devices at removing/detaching lice was measured with and without KCl pretreatment, and the results compared.
The experiment consisted of testing 3 mechanical devices on lice infested Atlantic salmon (ATS) in seawater and then on lice infested Atlantic salmon that had been pre-treated in seawater with KCL at 4 part per thousand (PPT) or 2 PPT for 5 or 15 minutes. The mechanical treatment referred to as Treatment A in Table 1 was a water spray apparatus including multiple jets in a roughly circular arrangement, and treatments B and C in Table 1 were alternative mechanical treatments. Each treatment group was run separately with two fish were staggered by 15 minutes to facilitate counting lice, except for Treatment C as both fish were placed together. The treatment groups were as follows: • 1) Treatment A with seawater (2 fish) • 2) Treatment A with sea water plus KCL 4 PPT, 15 minutes (2 fish) • 3) Treatment B with seawater (2 fish) • 4) Treatment B with sea water plus KCL 4 PPT, 15 minutes (2 fish) • 5) Treatment A with seawater plus 2PPT, 15 minutes (1 fish) • 6) Treatment A with sea water plus KCL 4 PPT, 5 minutes (1 fish) • 7) Treatment C with seawater (2 fish) • 8) Treatment C sea water plus KCL 2 PPT (2 fish)
Each treatment group was performed essentially as follows:
Pre-Treatment before Treatment A, B, or C • 1) Take 1 fish and transfer it to Tank 1 (70 liter tank); • 2) Take 1 fish and transfer it to Tank 2, staggered (70 liter tank); • 3) Both tanks will be filled with seawater for Round 1 of a treatment group and seawater and KC1 4PPT X for Round 2 for a treatment; • 4) Fish swim around freely in treatment Tank 1 for 30 minutes; • 5) Fish swim around freely in treatment Tank 2 for 30 minutes;
Evaluation of Pretreatment: • 1) Remove Fish from Tank 1; • 2) Place 1 Fish in Sedation Tank; • 3) Count detached lice in Tank 1; • 4) Remove 1 Fish from Sedation Tank; • 5) Count numbers of Lice on each fish (making sure to differentiate between the two tanks); • 6) Repeat for staggered Tank 2.
Perform Mechanical Treatment: • 1) Pass fish through mechanical treatments (A, B or C) • 2) Count lice on fish

[3] = previously known pesticide treatment; cited from earlier work
[4] = Example 1: 0.48% (4.8 ppt) pharmaceutical grade KCl, seawater tank, 30 and 60 minutes
[5] = Example 3: 0.5% (5.0 ppt) agricultural grade KCl, fresh well water at 10° C.
[6] = Mechanical Treatment A, KCl 2 PPT in seawater, treatment time 15 min
[7] = Mechanical Treatment A, KCl 4 PPT in seawater, treatment time 5 min
[8] = Mechanical Treatment A, KCl 4 PPT in seawater, treatment time 15 min
[9] = Mechanical Treatment B, KCl 4 PPT in seawater, treatment time 15 min

[Cl-].[K+] [KCl, potassium chloride]
sea lice detachment (sea lice [1]; [4]): noticeable sea lice detachment | sea lice detachment (sea lice [1]; Example 2: 0.43% (4.3 ppt) agricultural grade KCl, by agitation and thrashing of the dying fish): detached more lice | sea lice removal (sea lice [1]; [5]): marked sea lice removal | sea lice detachment (sea lice [1]; Example 4: 0.2% (2.0 ppt) agricultural grade KCl, fresh well water at 10° C., after 30 minutes): marked sea lice detachment | effectiveness on sea lice in freshwater compared with seawater (sea lice [1]; freshwater vs seawater): more effective | adverse effects on the salmon (Atlantic salmon; [4]): no noticeable adverse effects | time by which fish began losing equilibrium, rolled over and stopped respiring (Atlantic salmon; Example 2: 0.43% (4.3 ppt) agricultural grade KCl): ≤ 20 min | time after which fish began showing agitation (Atlantic salmon; Example 2: 0.43% (4.3 ppt) agricultural grade KCl, agitation increased until the 30 minute mark): 10 min | time within which fish showed extreme agitation, began to lose equilibrium and respiration stopped (Atlantic salmon; [5]): ≤ 10 min | agitation or adverse effect on the fish (Atlantic salmon; Example 4: 0.2% (2.0 ppt) agricultural grade KCl, fresh well water at 10° C., after 60 minutes): no agitation or adverse effect | effect of KCl on effectiveness of mechanical treatments A and B at removing/detaching lice (sea lice [2]; KCl pretreatment in seawater before mechanical treatment): increases the effectiveness | # removed - mechanical + KCl (sea lice [2]; [6]): 90 | # removed - mechanical treatment only (sea lice [2]; [6]): 39 | % removed - mechanical + KCl (sea lice [2]; [6]): 78.3% | % removed - mechanical treatment only (sea lice [2]; [6]): 60.9% | Sealice counts: Detached in pre-treatment tank (sea lice [2]; [6]): 51 | Sealice counts: On fish - finish (sea lice [2]; [6]): 25 | Sealice counts: On fish - start of mechanical treatment (sea lice [2]; [6]): 64 | # removed - mechanical + KCl (sea lice [2]; [7]): 117 | # removed - mechanical treatment only (sea lice [2]; [7]): 65 | % removed - mechanical + KCl (sea lice [2]; [7]): 80.7% | % removed - mechanical treatment only (sea lice [2]; [7]): 69.9% | Sealice counts: Detached in pre-treatment tank (sea lice [2]; [7]): 52 | Sealice counts: On fish - finish (sea lice [2]; [7]): 28 | Sealice counts: On fish - start of mechanical treatment (sea lice [2]; [7]): 93 | # removed - mechanical + KCl (sea lice [2]; [8]): 99 and 115 | # removed - mechanical treatment only (sea lice [2]; [8]): 19 and 16 | % removed - mechanical + KCl (sea lice [2]; [8]): 91.7% and 99.1% | % removed - mechanical treatment only (sea lice [2]; [8]): 67.9% and 94.1% | Sealice counts: Detached in pre-treatment tank (sea lice [2]; [8]): 80 and 99 | Sealice counts: On fish - start of mechanical treatment (sea lice [2]; [8]): 28 and 17 | # removed - mechanical + KCl (sea lice [2]; [9]): 88 and 85 | # removed - mechanical treatment only (sea lice [2]; [9]): 9 and 11 | % removed - mechanical + KCl (sea lice [2]; [9]): 91.7% and 93.4% | % removed - mechanical treatment only (sea lice [2]; [9]): 52.9% and 64.7% | Sealice counts: Detached in pre-treatment tank (sea lice [2]; [9]): 79 and 74 | Sealice counts: On fish - finish (sea lice [2]; [9]): 8 and 6 | Sealice counts: On fish - start of mechanical treatment (sea lice [2]; [9]): 17 | Sealice counts: On fish - finish (sea lice [2]; Mechanical Treatment C, KCl 2 PPT in seawater, treatment time 5 min, lice not counted prior to treatment): 35 and 31 | removing/detaching lice by KCl pretreatment on its own (sea lice [2]; pretreatment at 4ppt and 2ppt in seawater): effective in removing/detaching lice on its own | effectiveness of KCl at 4ppt compared with 2ppt (sea lice [2]; seawater pretreatment): more effective | effectiveness of KCl at 4ppt for 15 minutes compared with 5 minutes (sea lice [2]; seawater pretreatment, 4ppt): more effective

emamectin benzoate
time the pesticide can remain in the fish [3]: more than two months
